Test results as given in US9862716B2, “TRKA kinase inhibitors, compositions and methods thereof” (Merck Sharp & Dohme Corp., priority 2014, dated 2018).

The molecules below were run against T1, human TrkA receptor (Homo sapiens, UniProt P04629) (assay: DiscoverX PathHunter TrkA functional assay (NGF-stimulated U2OS cells)). Conditions: U2OS cells expressing human TrkA-PK, Shc1-EA and p75NTR; compound 1 h, then NGF at ~80% of maximal response for 3 h; luminescence.
T1 construct: host or cells: U2OS cells (PathHunter cell line)
T1 sequence (P04629 33-796): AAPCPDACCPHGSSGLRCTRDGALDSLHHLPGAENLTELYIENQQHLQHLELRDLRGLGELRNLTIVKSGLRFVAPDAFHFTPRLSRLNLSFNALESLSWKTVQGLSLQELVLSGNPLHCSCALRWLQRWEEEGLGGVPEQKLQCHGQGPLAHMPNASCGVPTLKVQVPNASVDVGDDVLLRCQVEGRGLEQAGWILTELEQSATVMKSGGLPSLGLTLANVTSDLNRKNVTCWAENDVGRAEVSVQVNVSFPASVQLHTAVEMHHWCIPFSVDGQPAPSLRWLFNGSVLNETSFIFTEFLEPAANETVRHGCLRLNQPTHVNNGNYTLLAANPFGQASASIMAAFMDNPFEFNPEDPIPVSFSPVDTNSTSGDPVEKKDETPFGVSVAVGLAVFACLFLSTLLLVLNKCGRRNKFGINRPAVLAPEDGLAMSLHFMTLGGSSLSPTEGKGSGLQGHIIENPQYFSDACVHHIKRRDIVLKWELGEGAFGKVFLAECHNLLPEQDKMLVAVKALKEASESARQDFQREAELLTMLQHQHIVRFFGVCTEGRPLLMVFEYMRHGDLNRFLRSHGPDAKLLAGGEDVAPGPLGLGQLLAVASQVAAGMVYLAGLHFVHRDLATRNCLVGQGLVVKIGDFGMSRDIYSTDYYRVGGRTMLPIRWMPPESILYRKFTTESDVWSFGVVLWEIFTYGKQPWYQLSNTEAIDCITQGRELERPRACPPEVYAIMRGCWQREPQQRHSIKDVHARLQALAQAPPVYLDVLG
Assay type: cell-based
Protocol: TrkA functional activity was measured using a DiscoverX PathHunter assay. In this assay, U2OS cells express the human TrkA receptor as a fusion with the weakly complementing fragment of B-galactosidase, which DiscoverX calls “Prolink (PK)”; additionally, Shc1 is fused with a larger fragment, which is called “Enzyme Acceptor (EA)”. Activation of the TrkA receptor, upon NGF addition, results in the kinase domain being phosphorylated, resulting in subsequent recruitment of Shc1-EA protein. That recruitment results in an active B-galactosidase enzyme that is detected by addition of a chemiluminescent substrate. The human p75^NTR protein was also expressed as a co-receptor for NGF.
All reagents were purchased from DiscoverX, except for the receptor agonists (NGF, BDNF, NT3) which were purchased from Peprotech. Cells were expanded and frozen into cryovials, and stored in the vapor phase of liquid nitrogen, and thawed immediately before use. Thawed cells were added to a 384-well plate at 7500 cells/well, and allowed to incubate overnight. Compound at various concentrations was added the following morning and allowed to incubate on cells for 1 h. Then, NGF was added at a concentration sufficient to elicit ˜80% of a maximal response and allowed to incubate for 3 h at ambient temperature. DiscoverX PathHunter detection reagent was then added and the plate was further incubated for 1 h in the dark. The plate was then read via luminescence on the Perkin Elmer Envision.
For `CC(O)c1ccn2nc(-c3ccccc3)c(NC(=O)c3cc(-c4ccn(C)n4)c(C(F)(F)F)cc3F)c2c1` (single isomer, unassigned) [Compound 107, (R or S)-2-fluoro-N-[5-(1-hydroxyethyl)-2-phenylpyrazolo[1,5-a]pyridin-3-yl]-5-(1-methyl-1H-pyrazol-3-yl)-4-(trifluoromethyl) benzamide], the IC50 was 0.85 nM. For `CC(O)c1ccc2[nH]c(-c3ccccc3)c(NC(=O)c3cc(-c4ccn(C)n4)c(C(F)(F)F)cc3F)c2c1` (single isomer, unassigned) [Compound 112, (R or S)-2-fluoro-N-[5-(1-hydroxyethyl)-2-phenyl-1H-indol-3-yl]-5-(1-methyl-1H-pyrazol-3-yl)-4-(trifluoromethyl) benzamide], the IC50 was 1.4 nM. `CC(O)c1ccc2[nH]c(-c3ccccc3)c(NC(=O)c3cc(-c4ccn(C)n4)c(C(F)(F)F)cc3F)c2c1` (single isomer, unassigned) [Compound 113, (R or S)-2-fluoro-N-[5-(1-hydroxyethyl)-2-phenyl-1H-indol-3-yl]-5-(1-methyl-1H-pyrazol-3-yl)-4-(trifluoromethyl) benzamide] was tested, and the IC50 was 1.7 nM. Molecule `Cn1ccc(-c2cc(C(=O)Nc3c(-c4ccccc4)nc4cc(C5CCCN5)ccn34)ccc2C(F)(F)F)n1` (single isomer, unassigned) [Compound 114, (R or S)-3-(1-methyl-1H-pyrazol-3-yl)-N-(2-phenyl-7-pyrrolidin-2-ylimidazo[1,2-a]pyridin-3-yl)-4-(trifluoromethyl) benzamide] has an IC50 of 15 nM. Work on `O=C(Nc1c(-c2ccccc2)nc2ccccn12)c1ccc(OC(F)(F)F)cc1` [Compound 1, N-(2-phenylimidazo[1,2-a]pyridin-3-yl)-4-(trifluoromethoxy) benzamide] yielded an IC50 of 550 nM. `O=C(Nc1c(-c2ccccc2)nc2sccn12)c1ccc(C(F)(F)F)cc1F` [Compound 2, 2-fluoro-N-(6-phenylimidazo[2,1-b][1,3]thiazol-5-yl)-4-(trifluoromethyl) benzamide] was tested, and the IC50 was 139 nM. `Cn1ccc(-c2cc(C(=O)Nc3c(-c4ccccc4)nc4ncccn34)ccc2C(F)(F)F)n1` [Compound 3, 3-(1-methyl-1H-pyrazol-3-yl)-N-(2-phenylimidazo[1,2-a]pyrimidin-3-yl)-4-(trifluoromethyl) benzamide] gave an IC50 of 5.9 nM. Work on `Cn1ccc(-c2cc(C(=O)Nc3c(-c4ccccc4)nc4ccccn34)ccc2C(F)(F)F)n1` [Compound 4, 3-(1-methyl-1H-pyrazol-3-yl)-N-(2-phenylimidazo[1,2-a]pyridin-3-yl)-4-(trifluoromethyl) benzamide] yielded an IC50 of 1.4 nM. `Cn1ccc(-c2cc(C(=O)Nc3c(-c4ccccn4)nc4ccccn34)ccc2C(F)(F)F)n1` [Compound 5, 3-(1-methyl-1H-pyrazol-3-yl)-N-(2-pyridin-2-ylimidazo[1,2-a]pyridin-3-yl)-4-(trifluoromethyl) benzamide] showed an IC50 of 12 nM. In the case of `Cn1ccc(-c2cc(C(=O)Nc3c(-c4ccccc4)nc4cccnn34)ccc2C(F)(F)F)n1` [Compound 6, 3-(1-methyl-1H-pyrazol-3-yl)-N-(2-phenylimidazo[1,2-b]pyridazin-3-yl)-4-(trifluoromethyl) benzamide], the IC50 is reported as 3.9 nM. In the case of `CC(C)c1cccc2nc(-c3ccccc3)c(NC(=O)c3ccc(C(F)(F)F)cc3F)n12` [Compound 7, 2-fluoro-N-[5-(1-methylethyl)-2-phenylimidazo[1,2-a]pyridin-3-yl]-4-(trifluoromethyl) benzamide], the IC50 is reported as 264 nM. Work on `Cn1ccc(-c2cc(C(=O)Nc3c(-c4ccncn4)nc4ccccn34)ccc2C(F)(F)F)n1` [Compound 8, 3-(1-methyl-1H-pyrazol-3-yl)-N-(2-pyrimidin-4-ylimidazo[1,2-a]pyridin-3-yl)-4-(trifluoromethyl) benzamide] yielded an IC50 of 568 nM. Molecule `O=C(Nc1c(-c2ccccc2)nc2ccccn12)c1ccc(C(F)(F)F)c(-c2cc[nH]n2)c1` [Compound 9, N-(2-phenylimidazo[1,2-a]pyridin-3-yl)-3-(1H-pyrazol-3-yl)-4-(trifluoromethyl) benzamide] has an IC50 of 8.8 nM. With `O=C(Nc1c(-c2ccno2)nc2ccccn12)c1ccc(C(F)(F)F)cc1F` [Compound 10, 2-fluoro-N-(2-isoxazol-5-ylimidazo[1,2-a]pyridin-3-yl)-4-(trifluoromethyl) benzamide] the IC50 was 1920 nM. `O=C(Nc1c(-c2ccccc2)nc2ccccn12)c1ccc(C(F)(F)F)c(-c2ccn(C(F)F)n2)c1` [Compound 11, 3-[1-(difluoromethyl)-1H-pyrazol-3-yl]-N-(2-phenylimidazo[1,2-a]pyridin-3-yl)-4-(trifluoromethyl) benzamide] gave an IC50 of 3.2 nM. Molecule `Cn1ccc(-c2cc(C(=O)Nc3c(-c4ccccc4)nc4sccn34)ccc2C(F)(F)F)n1` [Compound 12, 3-(1-methyl-1H-pyrazol-3-yl)-N-(6-phenylimidazo[2,1-b][1,3]thiazol-5-yl)-4-(trifluoromethyl) benzamide] has an IC50 of 1.9 nM. `Cc1cnn(-c2nc3ccccn3c2NC(=O)c2ccc(C(F)(F)F)c(-c3ccn(C)n3)c2)c1` [Compound 13, 3-(1-methyl-1H-pyrazol-3-yl)-N-[2-(4-methyl-1H-pyrazol-1-yl)imidazo[1,2-a]pyridin-3-yl]-4-(trifluoromethyl) benzamide] was tested, and the IC50 was 17 nM. `Cc1coc(-c2cc(C(=O)Nc3c(-c4ccccc4)nc4ccccn34)ccc2C(F)(F)F)n1` [Compound 14, 3-(4-methyl-1,3-oxazol-2-yl)-N-(2-phenylimidazo[1,2-a]pyridin-3-yl)-4-(trifluoromethyl) benzamide] was tested, and the IC50 was 3.3 nM. With `Cc1ccc(C(=O)Nc2c(-c3ccccc3)nc3ccccn23)cc1-c1ccn(C)n1` [Compound 15, 4-methyl-3-(1-methyl-1H-pyrazol-3-yl)-N-(2-phenylimidazo[1,2-a]pyridin-3-yl)benzamide] the IC50 was 26 nM. Work on `Cc1nc(-c2nc3ccccn3c2NC(=O)c2ccc(C(F)(F)F)c(-c3ccn(C)n3)c2)co1` [Compound 16, N-[2-(2-methyl-1,3-oxazol-4-yl)imidazo[1,2-a]pyridin-3-yl]-3-(1-methyl-1H-pyrazol-3-yl)-4-(trifluoromethyl) benzamide] yielded an IC50 of 556 nM. `Cn1ccc(-c2cc(C(=O)Nc3c(-c4ccccc4)nc4scnn34)ccc2C(F)(F)F)n1` [Compound 17, 3-(1-methyl-1H-pyrazol-3-yl)-N-(6-phenylimidazo[2,1-b][1,3,4]thiadiazol-5-yl)-4-(trifluoromethyl) benzamide] showed an IC50 of 9.2 nM. With `O=C(Nc1c(-c2ccccc2)nc2c(F)cccn12)c1ccc(C(F)(F)F)c(-c2cc[nH]n2)c1` [Compound 18, N-(8-fluoro-2-phenylimidazo[1,2-a]pyridin-3-yl)-3-(1H-pyrazol-3-yl)-4-(trifluoromethyl) benzamide] the IC50 was 11 nM. Work on `Cc1nc(-c2nc3ccccn3c2NC(=O)c2ccc(C(F)(F)F)c(-c3ccn(C)n3)c2)cs1` [Compound 19, 3-(1-methyl-1H-pyrazol-3-yl)-N-[2-(2-methyl-1,3-thiazol-4-yl)imidazo[1,2-a]pyridin-3-yl]-4-(trifluoromethyl) benzamide] yielded an IC50 of 14 nM. `Cn1ccc(-c2cc(C(=O)Nc3c(-c4ccccc4)nc4ccccn34)c(Cl)cc2C(F)(F)F)n1` [Compound 20, 2-chloro-5-(1-methyl-1H-pyrazol-3-yl)-N-(2-phenylimidazo[1,2-a]pyridin-3-yl)-4-(trifluoromethyl) benzamide] showed an IC50 of 0.73 nM. `Cn1ccc(-c2cc(C(=O)Nc3c(-c4ccccc4)nc4ccc(F)cn34)ccc2C(F)(F)F)n1` [Compound 21, N-(6-fluoro-2-phenylimidazo[1,2-a]pyridin-3-yl)-3-(1-methyl-1H-pyrazol-3-yl)-4-(trifluoromethyl) benzamide] was tested, and the IC50 was 3.8 nM. `Cn1ccc(-c2cc(C(=O)Nc3c(-c4ccccc4)nc4c(F)cccn34)ccc2C(F)(F)F)n1` [Compound 22, N-(8-fluoro-2-phenylimidazo[1,2-a]pyridin-3-yl)-3-(1-methyl-1H-pyrazol-3-yl)-4-(trifluoromethyl) benzamide] showed an IC50 of 1.9 nM. Molecule `Cn1ccc(-c2cc(C(=O)Nc3c(-c4ccncc4)nc4ccccn34)c(Cl)cc2C(F)(F)F)n1` [Compound 23, 2-chloro-5-(1-methyl-1H-pyrazol-3-yl)-N-(2-pyridin-4-ylimidazo[1,2-a]pyridin-3-yl)-4-(trifluoromethyl) benzamide] has an IC50 of 2 nM. Molecule `Cn1ccc(-c2cc(C(=O)Nc3c(-c4ccccc4)nc4ncccn34)c(Cl)cc2C(F)(F)F)n1` [Compound 24, 2-chloro-5-(1-methyl-1H-pyrazol-3-yl)-N-(2-phenylimidazo[1,2-a]pyrimidin-3-yl)-4-(trifluoromethyl) benzamide] has an IC50 of 2.8 nM. Molecule `CNC(=O)c1ccn2c(NC(=O)c3ccc(C(F)(F)F)c(-c4ccn(C)n4)c3)c(-c3ccccc3)nc2c1` [Compound 25, N-methyl-3-({[3-(1-methyl-1H-pyrazol-3-yl)-4-(trifluoromethyl)phenyl]carbonyl}amino)-2-phenylimidazo[1,2-a]pyridine-7-carboxamide] has an IC50 of 1.4 nM. In the case of `Cn1ccc(-c2cc(C(=O)Nc3c(-c4ccccc4)nc4cc(CO)ccn34)ccc2C(F)(F)F)n1` [Compound 26, N-[7-(hydroxymethyl)-2-phenylimidazo[1,2-a]pyridin-3-yl]-3-(1-methyl-1H-pyrazol-3-yl)-4-(trifluoromethyl) benzamide], the IC50 is reported as 1.4 nM. Molecule `Cn1ccc(-c2cc(C(=O)Nc3c(-c4ccccc4)nc4cc(C(C)(C)O)ccn34)ccc2C(F)(F)F)n1` [Compound 27, N-[7-(1-hydroxy-1-methylethyl)-2-phenylimidazo[1,2-a]pyridin-3-yl]-3-(1-methyl-1H-pyrazol-3-yl)-4-(trifluoromethyl) benzamide] has an IC50 of 1.8 nM. `CN(C)C(=O)c1ccn2c(NC(=O)c3ccc(C(F)(F)F)c(-c4ccn(C)n4)c3)c(-c3ccccc3)nc2c1` [Compound 28, N,N-dimethyl-3-({[3-(1-methyl-1H-pyrazol-3-yl)-4-(trifluoromethyl)phenyl]carbonyl}amino)-2-phenylimidazo[1,2-a]pyridine-7-carboxamide] was tested, and the IC50 was 1.3 nM. Work on `Cn1ccc(-c2cc(C(=O)Nc3c(-c4ccccc4)nc4cc(C(=O)N5CCC5)ccn34)ccc2C(F)(F)F)n1` [Compound 29, N-[7-(azetidin-1-ylcarbonyl)-2-phenylimidazo[1,2-a]pyridin-3-yl]-3-(1-methyl-1H-pyrazol-3-yl)-4-(trifluoromethyl) benzamide] yielded an IC50 of 1.4 nM.
